Biological target: T1, Isoform 2 of Nuclear receptor ROR-gamma (RORgT) (Homo sapiens, UniProt P51449)
T1 sequence (P51449 whole entry): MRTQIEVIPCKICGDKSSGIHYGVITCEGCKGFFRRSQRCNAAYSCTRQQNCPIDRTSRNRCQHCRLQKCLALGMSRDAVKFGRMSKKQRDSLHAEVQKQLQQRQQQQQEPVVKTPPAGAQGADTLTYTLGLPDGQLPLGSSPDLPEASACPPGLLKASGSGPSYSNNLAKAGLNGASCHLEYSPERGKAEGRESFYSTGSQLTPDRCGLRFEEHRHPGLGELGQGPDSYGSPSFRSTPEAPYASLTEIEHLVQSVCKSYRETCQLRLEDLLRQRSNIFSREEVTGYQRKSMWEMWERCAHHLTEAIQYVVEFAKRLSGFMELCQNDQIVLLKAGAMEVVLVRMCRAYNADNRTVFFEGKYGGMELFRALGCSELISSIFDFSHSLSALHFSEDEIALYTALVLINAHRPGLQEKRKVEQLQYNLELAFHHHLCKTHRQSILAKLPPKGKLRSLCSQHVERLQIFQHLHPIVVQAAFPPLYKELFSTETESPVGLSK
Assay: TR-FRET Assay
Conditions: pH 7; 4 °C
Description: To identify novel antagonists of RORgammaT, an assay was developed which employs the interaction of RORgammaT with its co-activator peptide SRC1_2. […] The RORγ-LBD protein was purified by glutathione sepharose chromatography. […] The mixture was then diluted in assay buffer (50 mM Tris pH 7.0, 50 mM KCl, 1 mM EDTA, 0.1 mM DTT) to obtain RORγ-LBD final concentration of 3 nM in 384-well assay plate. Compounds to be tested were injected to the assay plate using Acoustic Droplet Ejection technology by Echo 550 liquid handler (Labcyte, Calif.).

CC1CC(c2nn(C(=O)c3c(Cl)cccc3C(F)(F)F)c3cccc(F)c23)=CC(O)C1C(=O)O (stereo unspecified) [US9487490, 6C]
IC50: 5 nM

Source: BindingDB's records for patent US9487490 (Merck Sharp & Dohme Corp, 2016)
